Source: US11135234B2, “Effective aminoglycoside antibiotic for multidrug-resistant bacteria” (MICROBIAL CHEMISTRY RESEARCH FOUNDATION, priority 2015, dated 2021)
≈ marks a conversion by molar mass, not a printed value.

Columns and labels:
[1] = tested on: A. baumannii ATCC BAA-1710; experiment: MIC, agar plate dilution method, A. baumannii ATCC BAA-1710; format: cell-based, Acinetobacter baumannii; conditions: for minimal inhibitory concentration (MIC): A. baumannii ATCC BAA-1710, MDRA; for MIC: Acinetobacter baumannii, ATCCBAA1710, A. baumannii ATCC BAA-1710, MDRA, read-out: minimal inhibitory concentration (MIC)
In short: (§1)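 Minimal inhibitory concentration (μg/mL) was determined by agar plate dilution following the Japan Society of Chemotherapy method.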

S. aureus RN4220 = experiment: MIC, agar plate dilution method, S. aureus RN4220; format: cell-based, Staphylococcus aureus; conditions: for minimal inhibitory concentration (MIC): S. aureus RN4220, Sensitive bacterium; for MIC: Staphylococcus aureus, RN4220, S. aureus RN4220, Sensitive bacterium, read-out: minimal inhibitory concentration (MIC)
In short: as §1

P. aeruginosa PAO1/GN315 = experiment: MIC, agar plate dilution method, P. aeruginosa PAO1/GN315; format: cell-based, Pseudomonas aeruginosa; conditions: for minimal inhibitory concentration (MIC): P. aeruginosa PAO1/GN315, AMK-resistant; for MIC: Pseudomonas aeruginosa, read-out: minimal inhibitory concentration (MIC), P. aeruginosa PAO1/GN315, AMK-resistant
In short: as §1

P. aeruginosa PAO1 = experiment: MIC, agar plate dilution method, P. aeruginosa PAO1; format: cell-based, Pseudomonas aeruginosa; conditions: for minimal inhibitory concentration (MIC): P. aeruginosa PAO1, Sensitive bacterium; for MIC: Pseudomonas aeruginosa, PAO1, P. aeruginosa PAO1, Sensitive bacterium, read-out: minimal inhibitory concentration (MIC)
In short: as §1

S. aureus RN4220/pMS520 = experiment: MIC, agar plate dilution method, S. aureus RN4220/pMS520; format: cell-based, Staphylococcus aureus; conditions: for minimal inhibitory concentration (MIC): S. aureus RN4220/pMS520, MRSA; for MIC: Staphylococcus aureus, MRSA, read-out: minimal inhibitory concentration (MIC), S. aureus RN4220/pMS520, MRSA
In short: as §1

S. aureus MF490 = experiment: MIC, agar plate dilution method, S. aureus MF490; format: cell-based, Staphylococcus aureus; conditions: for minimal inhibitory concentration (MIC): S. aureus MF490, MRSA; for MIC: Staphylococcus aureus, MRSA, read-out: minimal inhibitory concentration (MIC)
In short: as §1

E. faecium ATCC19434 = experiment: MIC, agar plate dilution method, E. faecium ATCC19434; format: cell-based, Enterococcus faecium; conditions: for minimal inhibitory concentration (MIC): E. faecium ATCC19434; for MIC: Enterococcus faecium, ATCC19434, E. faecium ATCC19434, read-out: minimal inhibitory concentration (MIC)
In short: as §1

E. coli JM109/pMW218 = experiment: MIC, agar plate dilution method, E. coli JM109/pMW218; format: cell-based, Escherichia coli; conditions: for minimal inhibitory concentration (MIC): E. coli JM109/pMW218, Sensitive bacterium; for MIC: Escherichia coli, JM109/PMW218, E. coli JM109/pMW218, Sensitive bacterium, read-out: minimal inhibitory concentration (MIC)
In short: as §1

P. aeruginosa MSC01035 = experiment: MIC, agar plate dilution method, P. aeruginosa MSC01035; format: cell-based, Pseudomonas aeruginosa; conditions: P. aeruginosa MSC01035, ABK-resistant; for MIC: Pseudomonas aeruginosa, read-out: minimal inhibitory concentration (MIC)
In short: as §1

P. aeruginosa MSC17707 = experiment: MIC, agar plate dilution method, P. aeruginosa MSC17707; format: cell-based, Pseudomonas aeruginosa; conditions: for minimal inhibitory concentration (MIC): P. aeruginosa MSC17707, AMK-resistant; for MIC: Pseudomonas aeruginosa, MSC17707, P. aeruginosa MSC17707, AMK-resistant, read-out: minimal inhibitory concentration (MIC)
In short: as §1

S. marcescens TH-0447 = experiment: MIC, agar plate dilution method, S. marcescens TH-0447; format: cell-based, Serratia marcescens; conditions: for minimal inhibitory concentration (MIC): S. marcescens TH-0447, AMK-resistant; for MIC: Serratia marcescens, TH0447, S. marcescens TH-0447, AMK-resistant, read-out: minimal inhibitory concentration (MIC)
In short: as §1

[2] = tested on: K. pneumoniae ATCC BAA-1705; experiment: MIC, agar plate dilution method, K. pneumoniae ATCC BAA-1705; format: cell-based, Klebsiella pneumoniae; conditions: for minimal inhibitory concentration (MIC): K. pneumoniae ATCC BAA-1705, KPC-producing strain; for MIC: Klebsiella pneumoniae, ATCCBAA1705, K. pneumoniae ATCC BAA-1705, KPC-producing strain, read-out: minimal inhibitory concentration (MIC)
In short: as §1

S. marcescens GN6944 = experiment: MIC, agar plate dilution method, S. marcescens GN6944; format: cell-based, Serratia marcescens; conditions: S. marcescens GN6944, GM-resistant; for MIC: Serratia marcescens, read-out: minimal inhibitory concentration (MIC)
In short: as §1

[3] = tested on: K. pneumoniae ATCC BAA-2146; experiment: MIC, agar plate dilution method, K. pneumoniae ATCC BAA-2146; format: cell-based, Klebsiella pneumoniae; conditions: for minimal inhibitory concentration (MIC): K. pneumoniae ATCC BAA-2146, NDM-producing strain; for MIC: Klebsiella pneumoniae, ATCCBAA2146, K. pneumoniae ATCC BAA-2146, NDM-producing strain, read-out: minimal inhibitory concentration (MIC)
In short: as §1

Row | Structure (SMILES) | minimal inhibitory concentration (MIC) [1] [µg/mL] | minimal inhibitory concentration (MIC) (S. aureus RN4220) [µg/mL] | minimal inhibitory concentration (MIC) (P. aeruginosa PAO1/GN315) [µg/mL] | minimal inhibitory concentration (MIC) (P. aeruginosa PAO1) [µg/mL] | minimal inhibitory concentration (MIC) (S. aureus RN4220/pMS520) [µg/mL] | minimal inhibitory concentration (MIC) (S. aureus MF490) [µg/mL] | minimal inhibitory concentration (MIC) (E. faecium ATCC19434) [µg/mL] | minimal inhibitory concentration (MIC) [2] [µg/mL] | MIC [1] [µg/mL] | MIC (S. aureus RN4220) [µg/mL] | MIC (P. aeruginosa PAO1/GN315) [µg/mL] | MIC (S. aureus RN4220/pMS520) [µg/mL] | MIC (S. aureus MF490) [µg/mL] | MIC (E. faecium ATCC19434) [µg/mL] | MIC (E. coli JM109/pMW218) [µg/mL] | MIC (P. aeruginosa MSC01035) [µg/mL] | MIC (P. aeruginosa MSC17707) [µg/mL] | MIC (S. marcescens TH-0447) [µg/mL] | MIC (S. marcescens GN6944) [µg/mL] | MIC [3] [µg/mL] | further results
1 | CN[C@@H]1[C@@H](O[C@H]2O[C@H](CO)[C@@H](NC(=O)[C@H](N)CO)[C@H](O)[C@H]2O)O[C@H]2C[C@@H](N)[C@@H](O[C@H]3[C@H](O)[C@@H](O)[C@H](N)C[C@@H]3N)O[C@@H]2[C@@H]1O [Compound V1-f, 4″-N-(D-seryl)apramycin] | 8 (≈ 12.8 µM) | 8 (≈ 12.8 µM) | 8 (≈ 12.8 µM) | 4 (≈ 6.38 µM) | 8 (≈ 12.8 µM) | 32 (≈ 51.1 µM) | 64 (≈ 102 µM) | 4 (≈ 6.38 µM) | – | – | – | – | – | – | – | – | – | – | – | – | minimal inhibitory concentration (MIC) (E. coli JM109/pMW218): 2 µg/mL (≈ 3.19 µM); minimal inhibitory concentration (MIC) (P. aeruginosa MSC01035): 8 µg/mL (≈ 12.8 µM); minimal inhibitory concentration (MIC) (P. aeruginosa MSC17707): 8 µg/mL (≈ 12.8 µM); minimal inhibitory concentration (MIC) (S. marcescens TH-0447): 16 µg/mL (≈ 25.5 µM); minimal inhibitory concentration (MIC) (S. marcescens GN6944): 16 µg/mL (≈ 25.5 µM); minimal inhibitory concentration (MIC) [3]: 2 µg/mL (≈ 3.19 µM)
2 | CNC1C(O[C@H]2OC(CO)[C@@H](NC(=O)CCN)[C@H](O)C2O)O[C@H]2CC(N)[C@@H](O[C@@H]3C(N)C[C@@H](N)C(O)[C@H]3O)OC2C1O (stereo partly drawn) [Compound V1-g, 4″-N-(β-alanyl)apramycin] | – | – | – | – | – | – | – | – | 8 (≈ 13.1 µM) | 4 (≈ 6.55 µM) | 4 (≈ 6.55 µM) | 2 (≈ 3.28 µM) | 8 (≈ 13.1 µM) | 32 (≈ 52.4 µM) | 1 (≈ 1.64 µM) | 4 (≈ 6.55 µM) | 4 (≈ 6.55 µM) | 16 (≈ 26.2 µM) | 8 (≈ 13.1 µM) | 1 (≈ 1.64 µM) | MIC (P. aeruginosa PAO1): 4 µg/mL (≈ 6.55 µM); MIC [2]: 2 µg/mL (≈ 3.28 µM)
3 | CNC1C(O[C@H]2OC(CO)[C@@H](NC(=O)[C@@H](O)CN)[C@H](O)C2O)O[C@H]2CC(N)[C@@H](O[C@@H]3C(N)C[C@@H](N)C(O)[C@H]3O)OC2C1O (stereo partly drawn) [Compound V1-h, 4″-N-(L-isoseryl)apramycin] | – | – | – | – | – | – | – | – | 8 (≈ 12.8 µM) | 4 (≈ 6.38 µM) | 8 (≈ 12.8 µM) | 4 (≈ 6.38 µM) | 8 (≈ 12.8 µM) | 32 (≈ 51.1 µM) | 2 (≈ 3.19 µM) | 4 (≈ 6.38 µM) | 4 (≈ 6.38 µM) | 16 (≈ 25.5 µM) | 8 (≈ 12.8 µM) | 2 (≈ 3.19 µM) | MIC (P. aeruginosa PAO1): 16 µg/mL (≈ 25.5 µM); MIC [2]: 2 µg/mL (≈ 3.19 µM)
4 | CNCC(=O)N[C@@H]1C(CO)O[C@H](OC2O[C@H]3CC(N)[C@@H](O[C@@H]4C(N)C[C@@H](N)C(O)[C@H]4O)OC3C(O)C2NC)C(O)[C@H]1O (stereo partly drawn) [Compound V1-j, 5-epi-4″-N-sarcosylapramycin] | 8 (≈ 13.1 µM) | 2 (≈ 3.28 µM) | 4 (≈ 6.55 µM) | 2 (≈ 3.28 µM) | 2 (≈ 3.28 µM) | 4 (≈ 6.55 µM) | 8 (≈ 13.1 µM) | 1 (≈ 1.64 µM) | – | – | – | – | – | – | – | – | – | – | – | – | minimal inhibitory concentration (MIC) (E. coli JM109/pMW218): 1 µg/mL (≈ 1.64 µM); minimal inhibitory concentration (MIC) (P. aeruginosa MSC01035): 4 µg/mL (≈ 6.55 µM); minimal inhibitory concentration (MIC) (P. aeruginosa MSC17707): 2 µg/mL (≈ 3.28 µM); minimal inhibitory concentration (MIC) (S. marcescens TH-0447): 8 µg/mL (≈ 13.1 µM); minimal inhibitory concentration (MIC) (S. marcescens GN6944): 8 µg/mL (≈ 13.1 µM); minimal inhibitory concentration (MIC) [3]: 1 µg/mL (≈ 1.64 µM)
5 | CNC1C(O[C@H]2OC(CO)[C@@H](NC(=O)[C@H](C)N)[C@H](O)C2O)O[C@H]2CC(N)[C@@H](O[C@@H]3C(N)C[C@@H](N)C(O)[C@H]3O)OC2C1O (stereo partly drawn) [Compound V1-k, 4″-N-(L-alanyl)-5-epiapramycin] | – | – | – | 4 (≈ 6.55 µM) | – | – | – | 1 (≈ 1.64 µM) | 8 (≈ 13.1 µM) | 4 (≈ 6.55 µM) | 4 (≈ 6.55 µM) | 4 (≈ 6.55 µM) | 8 (≈ 13.1 µM) | 16 (≈ 26.2 µM) | 1 (≈ 1.64 µM) | 8 (≈ 13.1 µM) | 4 (≈ 6.55 µM) | 16 (≈ 26.2 µM) | 8 (≈ 13.1 µM) | 1 (≈ 1.64 µM) | –
